Assay results: paper PMC7509924, “Neuroprotective effect of Angelica gigas root in a mouse model of ischemic brain injury through MAPK signaling pathway regulation” (Chinese Medicine, 2020)

Key:
[1] = Pharmacokinetics of decursin in plasma after oral administration of RAGE; type: in vivo, SD rats
Description: Quantification of decursin was performed using an Accela LC system (Thermo Fisher Scientific; MA, USA) equipped with an autosampler, degasser, and quaternary solvent pump. Decursin and IS were separated on a Hypersil GOLD C18 column (2.1 mm × 100 mm, 1.9 μm; Thermo Fisher Scientific, MA, USA) at 35℃. The flow rate was set at 300 μL/min with an injection volume of 5 μL. The mobile phase consisted of water (containing 0.1% formic acid, A) and acetonitrile (B) and the gradient elution applied was as follows: 30–60% (B) for 0–4 min, 60% (B) for 0.5 min, and then re-equilibrated to 30% (B) until the end of the analysis. An LCQ Fleet ion-trap mass spectrometer (Thermo Fisher Scientific; MA, USA) was used to detect compounds in the eluent using the electrospray ionization source in the positive-ion mode. MS conditions were as follows: sheath gas (nitrogen), 50 arbitrary units; auxiliary gas (nitrogen), 20 arbitrary units; spray voltage, 5.0 kV; capillary temperature, 300℃; and capillary voltage, 30.0 V. Quantification of the compound was performed in the selective ion monitoring mode at 329 m/z [M+H]^+ for decursin and 415 m/z [M+H]^+ for the IS. Data was processed using Excalibur (v. 2.1.0; Thermo Fisher Scientific, CA, USA). Accurately weighed decursin and IS were dissolved in methanol at a concentration of 100 μg/mL, and the solution was diluted with methanol to prepare working solutions for the construction of the calibration curve. Calibration standards were prepared using 150 μL of blank rat plasma spiked with 10 μL of working solutions and 10 μL of IS solution, which was extracted using ethyl acetate. Plasma samples were prepared using a liquid–liquid extraction method. An aliquot of 150 μL plasma sample was spiked with 10 μL of IS solution and 10 μL of methanol, and 800 μL of ethyl acetate was added. Extraction of decursin and IS was performed by vortex mixing for 2 min at 25℃, followed by centrifugation at 704 × g for 10 min at 20℃. The upper layer (ethyl acetate) was then transferred to a clean 1.5 mL polypropylene tube and evaporated using a nitrogen gas blowing concentrator (MGS–2200; EYELA, Miyagi, Japan). The residue obtained after evaporation was reconstituted in 100 μL of methanol, vortex mixed for 2 min, and centrifuged at 704 × g for 10 min at 20℃. The supernatant was transferred to a glass vial and a 5 μL aliquot was injected into the UPLC–MS/MS system. […] Blood samples ([…]) were collected from a jugular vein in heparinized tubes before the administration, and 0.17, 0.5, 1, 2, 4, 6, 8, 12, 24, or 48 h after intragastric administration. Collected blood samples were immediately centrifuged at 704 × g for 10 min, and 150 μL aliquots of supernatant plasma were transferred to clean tubes and stored at -20 °C until analysis. The pharmacokinetic parameters of decursin were calculated using plasma concentration of decursin versus time data using PKSolver (a free add-in program for Microsoft Excel).

[2] = system: ERK and p38 in colon carcinoma cells; design: method as in PMID 21170925; conditions: cited from earlier work
[3] = oral RAGE 100 mg/rat, mean ± SD, n = 6

| Structure (SMILES) | half-life ([1]; SD, rat, after oral administration of RAGE, as restated in the discussion) [h] | AUC(0-t) ([1]; oral RAGE 100 mg/rat, 0 to 48 h, mean ± SD, n = 6) [ng·h/mL] | MRT last ([1]; oral RAGE 100 mg/rat, 0 to 48 h, mean ± SD, n = 6, read-out: MRT0-t) [h] | concentration at 48 h ([1]; oral RAGE 100 mg/rat, last measured concentration, mean ± SD, n = 6, read-out: Clast) [ng/mL] | AUC(0-inf) [1, 3] [ng·h/mL] | Cmax [1, 3] [ng/mL] | Tmax [1, 3] [h] | half-life [1, 3] [h] | MRT inf ([1]; oral RAGE 100 mg/rat, mean ± SD, n = 6, read-out: MRT0-∞) [h] | activities of ERK and p38 [2] |
| --- | --- | --- | --- | --- | --- | --- | --- | --- | --- | --- |
| CC(C)=CC(=O)O[C@H]1Cc2cc3ccc(=O)oc3cc2OC1(C)C [decursin] | 8.28 | 1190 ± 324 | 5.43 ± 0.581 | 2.62 ± 0.665 | 1220 ± 326 | 408 ± 85.7 | 1.75 ± 1.25 | 8.28 ± 0.538 | 6.9 ± 0.954 | inhibited |
| CC1(C)Oc2cc3oc(=O)ccc3cc2C[C@@H]1O [decursinol] | – | – | – | – | – | – | – | – | – | inhibited |
